For 35 compounds, Ki results are on record in patent US8637537B2, “Serine/threonine kinase inhibitors” (Genentech, Inc., priority 2011, dated 2014).

Read-outs that look alike come from different tables or passages of the source.

This assay addresses T1, human recombinant GST-PAK1-KD protein (Homo sapiens, UniProt Q13153).
T1 construct: residues #249-545 of human PAK1, UniProtKP/Swiss Q13153; His6 (N); made in house; host or cells: Sf9 insect cells, pAcGP67 baculovirus expression vector
Kind of assay: GST-PAK1-KD (kinase domain) biochemical assay, microfluidic mobility shift.

Setting [1] is: Table II, PAK1 Ki class, read-out: Ki.
Where [2] appears, read: Table I, PAK1 Ki class, read-out: Ki.

T1 sequence (Q13153 249-545): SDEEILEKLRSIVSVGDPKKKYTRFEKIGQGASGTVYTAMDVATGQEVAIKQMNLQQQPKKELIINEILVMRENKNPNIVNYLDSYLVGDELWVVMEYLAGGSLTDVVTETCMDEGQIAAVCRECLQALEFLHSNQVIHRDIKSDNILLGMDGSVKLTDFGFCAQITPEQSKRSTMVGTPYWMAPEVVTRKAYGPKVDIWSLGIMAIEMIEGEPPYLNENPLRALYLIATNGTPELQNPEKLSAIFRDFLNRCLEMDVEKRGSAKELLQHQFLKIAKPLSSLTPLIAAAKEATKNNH

Usually Ki stands for a dissociation constant, usually derived from enzyme kinetics or from competition with a known ligand. Regarding `CC(C)N(Cc1cc(F)cc2[nH]ncc12)c1nccc(Nc2cc(C3CC3)[nH]n2)n1` [II-63, N^4-(5-cyclopropyl-1H-pyrazol-3-yl)-N^2-((6-fluoro-1H-indazol-4-yl)methyl)-N^2-isopropylpyrimidine-2,4-diamine], the Ki under setting [1] was under 50 nM.

Turning to `Clc1c(CNc2nccc(Nc3cc(OCC4CC4)[nH]n3)n2)ccc2[nH]cnc12` [II-6, N^2-(4-Chloro-1H-benzoimidazol-5-ylmethyl)-N4-(5-cyclopropylmethoxy-1H-pyrazol-3-yl)-pyrimidine-2,4-diamine], the inhibitory constant (Ki) under setting [1] was under 50 nM.

Regarding `C[C@H](Nc1nccc(Nc2cc(C3CCCC3)[nH]n2)n1)c1ccc2[nH]ccc2c1` [I-113, (S)—N^2-(1-(1H-indol-5-yl)ethyl)-N^4-(5-cyclopentyl-1H-pyrazol-3-yl)pyrimidine-2,4-diamine], under setting [2], the Ki was under 50 nM.

Take `CN(Cc1ccc2[nH]cnc2c1Cl)c1nccc(Nc2cc(OCc3ccccn3)[nH]n2)n1` [II-36]: the Ki under setting [1] is 50 to 250 nM.

With `Cc1c(CN(C)c2nccc(Nc3cc(C4CC4)[nH]n3)n2)ccc2[nH]cnc12` [I-95, N^4-(5-Cyclopropyl-1H-pyrazol-3-yl)-N^2-methyl-N^2-((4-methyl-1H-benzo[d]imidazol-5-yl)methyl)pyrimidine-2,4-diamine], the inhibition constant Ki under setting [2] was under 50 nM.

For `FC1(F)CC(c2cc(Nc3ccnc(NCc4ccc5[nH]cnc5c4Cl)n3)n[nH]2)C1` [I-105, N^2-((4-chloro-1H-benzo[d]imidazol-5-yl)methyl)-N^4-(5-(3,3-difluorocyclobutyl)-1H-pyrazol-3-yl)pyrimidine-2,4-diamine], the inhibitory constant (Ki) under setting [2] was under 50 nM.

As for `C[C@H](Nc1nccc(Nc2cc([C@H]3C[C@@H]3F)[nH]n2)n1)c1ccc2[nH]ccc2c1` [I-73, N^2—((S)-1-(1H-indol-5-yl)ethyl)-N^4-(5-((1R,2S)-2-fluorocyclopropyl)-1H-pyrazol-3-yl)pyrimidine-2,4-diamine], the inhibition constant (Ki) under setting [2] is under 50 nM.

In the case of `C[C@H](Nc1nccc(Nc2cc(C3CC3)[nH]n2)n1)c1cccc2[nH]cnc12` [II-41, (S)-N^2-(1-(1H-benzo[d]imidazol-4-yl)ethyl)-N^4-(5-cyclopropyl-1H-pyrazol-3-yl)pyrimidine-2,4-diamine], under setting [1], the Ki lay in the range of 50 to 250 nM.

Take `C[C@@H](Nc1nccc(Nc2cc(C3CC3)[nH]n2)n1)c1ccc2[nH]ccc2c1` [I-60, (R)—N^2-(1-(1H-indol-5-yl)ethyl)-N^4-(5-cyclopropyl-1H-pyrazol-3-yl)pyrimidine-2,4-diamine]: the Ki (Ki, Table I, PAK1 Ki class) was over 1000 nM.

Turning to `Cc1nc2c(CNc3nccc(Nc4cc(C5CC5)[nH]n4)n3)cc(Cl)cc2[nH]1` [II-17, N^2-((6-Chloro-2-methyl-1H-benzo[d]imidazol-4-yl)methyl)-N^4-(5-cyclopropyl-1H-pyrazol-3-yl)pyrimidine-2,4-diamine], under setting [1], the Ki was under 50 nM.

With `C[C@H](Nc1nccc(Nc2cc([C@@H]3C[C@@H]3F)[nH]n2)n1)c1ccc2[nH]cnc2c1` (single isomer, unassigned) [I-67], the Ki under setting [2] is under 50 nM.

As for `CN(Cc1cc(F)cc2[nH]ncc12)c1nccc(Nc2cc(C3CC3)[nH]n2)n1` [II-58, N^4-(5-cyclopropyl-1H-pyrazol-3-yl)-N^2-((6-fluoro-1H-indazol-4-yl)methyl)-N^2-methylpyrimidine-2,4-diamine], the Ki under setting [1] was under 50 nM.

Turning to `CN(C)CCN(Cc1cccc2[nH]ccc12)c1nccc(Nc2cc([C@H]3C[C@@H]3F)[nH]n2)n1` [II-88, N^2-((1H-indol-4-yl)methyl)-N^2-(2-(dimethylamino)ethyl)-N^4-(5-((1R,2S)-2-fluorocyclopropyl)-1H-pyrazol-3-yl)pyrimidine-2,4-diamine], the Ki under setting [1] was under 50 nM.

As to `Cc1nc2c(CNc3ncc(F)c(Nc4cc(C5CC5)[nH]n4)n3)cc(Cl)cc2[nH]1` [II-32, N^2-((6-Chloro-2-methyl-1H-benzo[d]imidazol-4-yl)methyl)-N^4-(5-cyclopropyl-1H-pyrazol-3-yl)-5-fluoropyrimidine-2,4-diamine], the Ki under setting [1] is 50 to 250 nM.

Turning to `c1cc(Nc2cc(C3CC3)[nH]n2)nc(NCc2ccc3[nH]ccc3c2)n1` [I-15, N^2-((1H-Indol-5-yl)methyl)-N^4-(5-cyclopropyl-1H-pyrazol-3-yl)pyrimidine-2,4-diamine], the Ki is under 50 nM.

For the compound `c1cc(Nc2cc(C3CC3)[nH]n2)nc(NCc2ccc3cc[nH]c3c2)n1` [I-35, N^2-((1H-Indol-6-yl)methyl)-N^4-(5-cyclopropyl-1H-pyrazol-3-yl)pyrimidine-2,4-diamine], the Ki under setting [2] was over 1000 nM.

Regarding `C[C@H](Nc1nccc(Nc2cc(C3CC3)[nH]n2)n1)c1c(F)ccc2[nH]ncc12` [II-61, (S)-N^4-(5-cyclopropyl-1H-pyrazol-3-yl)-N^2-(1-(5-fluoro-1H-indazol-4-yl)ethyl)pyrimidine-2,4-diamine], the inhibition constant Ki under setting [1] was under 50 nM.

For the compound `CN(Cc1cccc2[nH]ncc12)c1ncc(F)c(Nc2cc(C3CC3)[nH]n2)n1` [II-93, N^2-((1H-indazol-4-yl)methyl)-N^4-(5-cyclopropyl-1H-pyrazol-3-yl)-5-fluoro-N^2-methylpyrimidine-2,4-diamine], the Ki under setting [1] was under 50 nM.

Consider `CCN(Cc1cc(F)cc2[nH]ncc12)c1nccc(Nc2cc(C3CC3)[nH]n2)n1` [II-70, N^4-(5-cyclopropyl-1H-pyrazol-3-yl)-N^2-ethyl-N^2-((6-fluoro-1H-indazol-4-yl)methyl)pyrimidine-2,4-diamine], for which the Ki under setting [1] was under 50 nM.

Turning to `Cc1cc(CNc2nccc(Nc3cc(C4CC4)[nH]n3)n2)c2nc[nH]c2c1` [II-28, N^4-(5-Cyclopropyl-1H-pyrazol-3-yl)-N^2-((6-methyl-1H-benzo[d]imidazol-4-yl)methyl)-pyrimidine-2,4-diamine], the Ki under setting [1] was 50 to 250 nM.

Regarding `C[C@@H](Oc1cc(Nc2ccnc(N(C)Cc3ccc4[nH]cnc4c3Cl)n2)n[nH]1)c1ccccc1` [II-21, (R)-N^2-((4-Chloro-1H-benzo[d]imidazol-5-yl)methyl)-N^2-methyl-N^4-(5-(1-phenylethoxy)-1H-pyrazol-3-yl)pyrimidine-2,4-diamine], the inhibition constant Ki under setting [1] is under 50 nM.

As for `Clc1c(CNc2nccc(Nc3cc(COC4CCC4)[nH]n3)n2)ccc2[nH]cnc12` [II-43, N^2-((4-Chloro-1H-benzo[d]imidazol-5-yl)methyl)-N^4-(5-(cyclobutoxymethyl)-1H-pyrazol-3-yl)pyrimidine-2,4-diamine], the Ki was 284 nM (GST-PAK1-KD Inhibition Assay - Example 65, read-out: PAK1 inhibition Ki) and 50 to 250 nM under setting [1].

For `c1cc(Nc2cc(C3CC3)[nH]n2)nc(NCc2ccc3cn[nH]c3c2)n1` [I-103, N^4-(5-cyclopropyl-1H-pyrazol-3-yl)-N^2-(1H-indazol-6-ylmethyl)pyrimidine-2,4-diamine], the Ki under setting [2] was over 1000 nM.

`CCN(Cc1ccc2[nH]cnc2c1)c1nccc(Nc2cc(C3CC3)[nH]n2)n1` [I-71, N^2-((1H-benzo[d]imidazol-5-yl)methyl)-N^4-(5-cyclopropyl-1H-pyrazol-3-yl)-N^2-ethylpyrimidine-2,4-diamine]: under setting [2], the Ki is under 50 nM.

Regarding `Fc1c(CNc2nccc(Nc3cc(C4CC4)[nH]n3)n2)ccc2[nH]cnc12` [I-29, N^4-(5-Cyclopropyl-1H-pyrazol-3-yl)-N^2-[(4-fluoro-1H-benzimidazol-5-yl)methyl]pyrimidine-2,4-diamine], the Ki is 250 to 1000 nM.

For `Clc1c(CNc2nccc(Nc3cc(C4CCC4)[nH]n3)n2)ccc2[nH]cnc12` [I-108, N^2-((4-chloro-1H-benzo[d]imidazol-5-yl)methyl)-N^4-(5-cyclobutyl-1H-pyrazol-3-yl)pyrimidine-2,4-diamine], the inhibitory constant (Ki) under setting [2] is under 50 nM.

`C[C@H](Nc1ncc(Cl)c(Nc2cc(C3CC3)[nH]n2)n1)c1ccc2[nH]ccc2c1` [I-110, (S)—N^2-(1-(1H-indol-5-yl)ethyl)-5-chloro-N^4-(5-cyclopropyl-1H-pyrazol-3-yl)pyrimidine-2,4-diamine]: the Ki under setting [2] is 250 to 1000 nM.

Turning to `CN(Cc1ccc2[nH]cnc2c1Cl)c1nccc(Nc2cc([C@@H]3C[C@H]3F)[nH]n2)n1` [II-49, N^2-((4-chloro-1H-benzo[d]imidazol-5-yl)methyl)-N^4-(5-((1S,2R)-2-fluorocyclopropyl)-1H-pyrazol-3-yl)-N^2-methylpyrimidine-2,4-diamine], the Ki under setting [1] was under 50 nM.

On to `Cc1cc(Nc2cc(C3CC3)[nH]n2)nc(N[C@@H](C)c2ccc3[nH]cnc3c2)n1` [I-4, (S)—N^2-(1-(1H-benzo[d]imidazol-5-yl)ethyl)-N^4-(5-cyclopropyl-1H-pyrazol-3-yl)-6-methylpyrimidine-2,4-diamine], for which the Ki under setting [2] lay in the range of 50 to 250 nM.

Turning to `CN(Cc1cc(Cl)cc2[nH]cnc12)c1nccc(Nc2cc(C3CC3)[nH]n2)n1` [II-14, N^2-((6-Chloro-1H-benzo[d]imidazol-4-yl)methyl)-N^4-(5-cyclopropyl-1H-pyrazol-3-yl)-N^2-methylpyrimidine-2,4-diamine], the Ki under setting [1] was under 50 nM.

On to `COc1c(CNc2nccc(Nc3cc(C4CC4)[nH]n3)n2)ccc2[nH]cnc12` [II-1, N^4-(5-Cyclopropyl-1H-pyrazol-3-yl)-N^2-[(4-methoxy-1H-benzimidazol-5-yl)methyl]-pyrimidine-2,4-diamine], for which, under setting [1], the inhibition constant Ki was under 50 nM.

In the case of `COCCN(Cc1ccc2[nH]cnc2c1)c1nccc(Nc2cc(C3CC3)[nH]n2)n1` [II-35, N^2-((1H-benzo[d]imidazol-5-yl)methyl)-N^4-(5-cyclopropyl-1H-pyrazol-3-yl)-N^2-(2-methoxyethyl)pyrimidine-2,4-diamine], the Ki under setting [1] lay within 50 to 250 nM.

For the compound `CN(C)CCN(Cc1cccc2[nH]ccc12)c1nccc(Nc2cc([C@@H]3C[C@H]3F)[nH]n2)n1` [II-83, N^2-((1H-indol-4-yl)methyl)-N^2-(2-(dimethylamino)ethyl)-N^4-(5-((1S,2R)-2-fluorocyclopropyl)-1H-pyrazol-3-yl)pyrimidine-2,4-diamine], under setting [1], the Ki was under 50 nM.

As for `Cc1cnc(N[C@@H](C)c2ccc3[nH]ccc3c2)nc1Nc1cc(C2CC2)[nH]n1` [I-31, (S)—N^2-(1-(1H-indol-5-yl)ethyl)-N^4-(5-cyclopropyl-1H-pyrazol-3-yl)-5-methylpyrimidine-2,4-diamine], under setting [2], the Ki was in the range of 250 to 1000 nM.

For the compound `F[C@@H]1C[C@@H]1c1cc(Nc2ccnc(NCc3cccc4[nH]ccc34)n2)n[nH]1` (racemic) [I-81], the inhibitory constant (Ki) under setting [2] is 50 to 250 nM.
